Data from ChEMBL document CHEMBL1201862, “PubChem BioAssay data set” (2004).
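Cells were grown in 96-well plates and exposed to each compound for 48 hours at five concentrations; endpoints were interpolated linearly between bracketing concentrations, or set to the highest concentration if not reached. GI50: concentration for 50% inhibition of growth.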 Calls of active or inactive are those of the source. No stated cut-off is given here; in the data, active = GI50 up to about 1.1 µM and inactive = higher.

What was measured:
Assay in all cases: inhibition of tumour cell growth, NCI panel, 48 h
CAKI-1 = system: CAKI-1
HL-60 = system: HL-60
KM12 = system: KM12
MOLT-4 = system: MOLT-4
Malme-3M = system: Malme-3M
OVCAR-3 = system: OVCAR-3
OVCAR-5 = system: OVCAR-5
SF-268 = system: SF-268
SF-539 = system: SF-539
SK-MEL-5 = system: SK-MEL-5
SNB-19 = system: SNB-19
SW-620 = system: SW-620
RPMI-8226 = system: RPMI-8226
HCT-116 = system: HCT-116
SR = system: SR

| Structure (SMILES) | GI50 (CAKI-1) | GI50 (HL-60) | GI50 (KM12) | GI50 (MOLT-4) | GI50 (Malme-3M) | GI50 (OVCAR-3) | GI50 (OVCAR-5) | GI50 (SF-268) | GI50 (SF-539) | GI50 (SK-MEL-5) | GI50 (SNB-19) | GI50 (SW-620) | GI50 (RPMI-8226) | GI50 (HCT-116) | GI50 (SR) |
| --- | --- | --- | --- | --- | --- | --- | --- | --- | --- | --- | --- | --- | --- | --- | --- |
| CCOC(=O)c1c2ccc(/C=C/c3ccccn3)ccc-2c(C(=O)OCC)c1N | > 100 µM (inactive) | 89.1 µM (inactive) | > 100 µM (inactive) | > 100 µM (inactive) | > 100 µM (inactive) | > 100 µM (inactive) | > 100 µM (inactive) | 0.091 µM (active) | 88.9 µM (inactive) | > 100 µM (inactive) | > 100 µM (inactive) | > 100 µM (inactive) |  |  |  |
| CC[P+](C)(C)c1ccccc1 | > 100 µM (inactive) |  | > 100 µM (inactive) | > 100 µM (inactive) | > 100 µM (inactive) | > 100 µM (inactive) | > 100 µM (inactive) | > 100 µM (inactive) | > 100 µM (inactive) | > 100 µM (inactive) | > 100 µM (inactive) | > 100 µM (inactive) | > 100 µM (inactive) |  |  |
| C/C(CC(=O)Nc1ccccc1[N+](=O)[O-])=N\NC(N)=O |  | > 100 µM (inactive) | > 100 µM (inactive) | > 100 µM (inactive) | > 100 µM (inactive) | > 100 µM (inactive) | > 100 µM (inactive) | > 100 µM (inactive) | > 100 µM (inactive) | > 100 µM (inactive) |  | > 100 µM (inactive) | > 100 µM (inactive) | > 100 µM (inactive) |  |
| CC(C)OC(=O)C1=C(O)c2ccccc2S(=O)(=O)N1 | > 100 µM (inactive) |  | > 100 µM (inactive) | > 100 µM (inactive) | > 100 µM (inactive) | > 100 µM (inactive) | > 100 µM (inactive) | > 100 µM (inactive) | > 100 µM (inactive) | > 100 µM (inactive) | > 100 µM (inactive) | > 100 µM (inactive) |  | > 100 µM (inactive) |  |
| C#CCN(Cc1ccc2nc(-c3ccccc3)c(Cl)nc2c1)c1ccc(Cl)c(Cl)c1 | > 100 µM (inactive) | > 100 µM (inactive) | > 100 µM (inactive) | > 100 µM (inactive) | > 100 µM (inactive) | 60 µM (inactive) | > 100 µM (inactive) | > 100 µM (inactive) | > 100 µM (inactive) | > 100 µM (inactive) | > 100 µM (inactive) | > 100 µM (inactive) |  | > 100 µM (inactive) | > 100 µM (inactive) |
| O=C(NC1C(=O)NNC1c1cccc([N+](=O)[O-])c1)c1ccccc1 (configuration not stated) |  | 90.8 µM (inactive) | > 100 µM (inactive) | > 100 µM (inactive) | > 100 µM (inactive) | > 100 µM (inactive) | > 100 µM (inactive) | > 100 µM (inactive) |  | > 100 µM (inactive) | > 100 µM (inactive) | > 100 µM (inactive) | > 100 µM (inactive) | > 100 µM (inactive) |  |
| O=C(CC(=O)c1cccc2ccccc12)C(=O)Nc1ccc(Cl)cc1 | > 100 µM (inactive) | > 100 µM (inactive) | > 100 µM (inactive) | > 100 µM (inactive) | > 100 µM (inactive) | > 100 µM (inactive) | > 100 µM (inactive) | > 100 µM (inactive) | > 100 µM (inactive) | > 100 µM (inactive) | > 100 µM (inactive) | > 100 µM (inactive) | > 100 µM (inactive) | > 100 µM (inactive) |  |
| c1ccc(NC[Si]23OCCN(CCO2)CCO3)cc1 | > 100 µM (inactive) |  | > 100 µM (inactive) | > 100 µM (inactive) | > 100 µM (inactive) | > 100 µM (inactive) | > 100 µM (inactive) | > 100 µM (inactive) | > 100 µM (inactive) | > 100 µM (inactive) | > 100 µM (inactive) | > 100 µM (inactive) | > 100 µM (inactive) | > 100 µM (inactive) | > 100 µM (inactive) |
